Measured values reported in PubChem BioAssay AID1259411 (Chemical Carcinogenesis Research Information System (CCRIS), 2018).
Active and inactive are the calls of the source. The rule behind the calls is not given here.

System: rodent carcinogenicity bioassays, tumor incidence
Test: CCRIS carcinogenicity studies
How it was run: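 NCI-built, expert-reviewed records of carcinogenicity and related test outcomes (mutagenicity, tumor promotion/inhibition) compiled from published and report sources, historical span 1985-2011, not updated.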

Compound: CC(Cl)Cl
- carcinogen call (Species: MOUSE, Strain/Sex: B6C3F1/FEMALE, Route: GAVAGE, Dose: 0, 1665, 3331 MG/KG 5/WK FOR 78 WK (STUDY DURATION: 91 WK), Dose: 0, 1665, 3331 MG/KG 5/WK FOR 78 WK (STUDY DURATION: 91 WK), Tumor Site: Type of Lesion: UTERUS: ENDOMETRIAL STROMAL POLYP): equivocal
- carcinogen call (Species: MOUSE, Strain/Sex: B6C3F1/MALE, Route: GAVAGE, Dose: 0, 1,442, 2,885 MG/KG 5/WK FOR 78 WK (STUDY DURATION: 91 WK), Dose: 0, 1,442, 2,885 MG/KG 5/WK FOR 78 WK (STUDY DURATION: 91 WK)): inactive; negative
- carcinogen call (Species: RAT, Strain/Sex: OSBORNE-MENDEL/FEMALE, Route: GAVAGE, Dose: 0, 475, 950 MG/KG 5/WK FOR 78 WK (STUDY DURATION: 111 WK), Dose: 0, 475, 950 MG/KG 5/WK FOR 78 WK (STUDY DURATION: 111 WK), Tumor Site: Type of Lesion: MAMMARY GLAND: ADENOCARCINOMA, LUNG: HEMANGIOSARCOMA, SPLEEN: HEMANGIOSARCOMA, Tumor Site: Type of Lesion: MAMMARY GLAND: ADENOCARCINOMA, LUNG: HEMANGIOSARCOMA, SPLEEN: HEMANGIOSARCOMA): equivocal
- carcinogen call (Species: RAT, Strain/Sex: OSBORNE-MENDEL/MALE, Route: GAVAGE, Dose: 0, 382, 764 MG/KG 5/WK FOR 78 WK (STUDY DURATION: 111 WK), Dose: 0, 382, 764 MG/KG 5/WK FOR 78 WK (STUDY DURATION: 111 WK)): inactive; negative

Compound: c1ccc2nc3ccccc3cc2c1
- carcinogen call (Species: RAT, Strain/Sex: OSBORNE-MENDEL/FEMALE, Route: LUNG IMPLANT, Dose: 0, 0.2, 1.0, 5.0 MG IN BEESWAX/TRICAPRYLIN (STUDY DURATION: LIFETIME), Dose: 0, 0.2, 1.0, 5.0 MG IN BEESWAX/TRICAPRYLIN (STUDY DURATION: LIFETIME)): inactive; negative

Compound: N#Cc1nn(-c2c(Cl)cc(C(F)(F)F)cc2Cl)c(N)c1S(=O)C(F)(F)F (stereo not drawn)
- carcinogen call (Species: Mouse, Strain/Sex: CD-1/Female (32/Group), Route: Oral, Dose: 0, 0.1, 0.5, 10, 30 ppm of 95.4% fipronil in diet for 78 wks, study duration 78 wks, Dose: 0, 0.1, 0.5, 10, 30 ppm of 95.4% fipronil in diet for 78 wks, study duration 78 wks): inactive; negative
- carcinogen call (Species: Mouse, Strain/Sex: CD-1/Male (32/Group), Route: Oral, Dose: 0, 0.1, 0.5, 10, 30 ppm of 95.4% fipronil in diet for 78 wks, study duration 78 wks, Dose: 0, 0.1, 0.5, 10, 30 ppm of 95.4% fipronil in diet for 78 wks, study duration 78 wks, Tumor Site: Type of Lesion: Liver: malignant hepatocellular tumors at highest dose): active; positive
- carcinogen call (Species: Rat, Strain/Sex: CD/Female (50/Group), Route: Oral, Dose: 0, 0.5, 1.5, 30, 300 ppm of 95.4% fipronil in diet for 89-91 wks, study duration 104 wks, Dose: 0, 0.5, 1.5, 30, 300 ppm of 95.4% fipronil in diet for 89-91 wks, study duration 104 wks, Tumor Site: Type of Lesion: Thyroid: follicular cell adenoma and carcinoma at highest dose): active; positive
- carcinogen call (Species: Rat, Strain/Sex: CD/Male (50/Group), Route: Oral, Dose: 0, 0.5, 1.5, 30, 300 ppm of 95.4% fipronil in diet for 89-91 wks, study duration 104 wks, Dose: 0, 0.5, 1.5, 30, 300 ppm of 95.4% fipronil in diet for 89-91 wks, study duration 104 wks, Tumor Site: Type of Lesion: Thyroid: follicular cell adenoma and carcinoma at highest dose): active; positive

Compound: CC(CCl)OC(C)CCl (stereo not drawn)
- carcinogen call (Species: MOUSE, Strain/Sex: B6C3F1/FEMALE, Route: GAVAGE, Dose: 0, 100, 200 MG/KG IN CORN OIL 5/WK FOR 103 WK, Dose: 0, 100, 200 MG/KG IN CORN OIL 5/WK FOR 103 WK, Tumor Site: Type of Lesion: LUNG: ALVEOLAR/BRONCHIOLAR ADENOMA, CARCINOMA): active; positive
- carcinogen call (Species: MOUSE, Strain/Sex: B6C3F1/MALE, Route: GAVAGE, Dose: 0, 100, 200 MG/KG IN CORN OIL 5/WK FOR 103 WK, Dose: 0, 100, 200 MG/KG IN CORN OIL 5/WK FOR 103 WK, Tumor Site: Type of Lesion: LUNG: ALVEOLAR/BRONCHIOLAR ADENOMA, CARCINOMA, LIVER: HEPATOCELLULAR ADENOMA, CARCINOMA): active; positive
- carcinogen call (Species: RAT, Strain/Sex: F344/FEMALE, Route: GAVAGE, Dose: 0, 100, 200 MG/KG IN CORN OIL, Dose: 0, 100, 200 MG/KG IN CORN OIL): inactive; negative
- carcinogen call (Species: RAT, Strain/Sex: F344/MALE, Route: GAVAGE, Dose: 0, 100, 200 MG/KG IN CORN OIL, Dose: 0, 100, 200 MG/KG IN CORN OIL): inactive; negative

Compound: CC(=O)OC/C=C(C)/C=C/C=C(C)/C=C/C1=C(C)CCCC1(C)C
- carcinogen call (Species: RAT, Strain/Sex: F344/FEMALE, Route: ORAL, Dose: 0, 0.125, 0.25% IN DRINKING WATER (TOTAL DOSE: 0; 50; 95 G/KG) FOR 104 WK (STUDY DURATION: 108 WK), Dose: 0, 0.125, 0.25% IN DRINKING WATER (TOTAL DOSE: 0; 50; 95 G/KG) FOR 104 WK (STUDY DURATION: 108 WK), Tumor Site: Type of Lesion: ADRENAL GLAND: MALIGNANT OR BENIGN PHEOCHROMOCYTOMA, BENIGN PHEOCHROMOCYTOMA, BILATERAL LESIONS, CLITORAL GLAND: ADENOMA): active; positive
- carcinogen call (Species: RAT, Strain/Sex: F344/MALE, Route: ORAL, Dose: 0, 0.125, 0.25% IN DRINKING WATER (TOTAL DOSE: 0; 50; 95 G/KG) FOR 104 WK (STUDY DURATION: 108 WK), Dose: 0, 0.125, 0.25% IN DRINKING WATER (TOTAL DOSE: 0; 50; 95 G/KG) FOR 104 WK (STUDY DURATION: 108 WK), Tumor Site: Type of Lesion: ADRENAL GLAND: MALIGNANT PHEOCHROMOCYTOMA, BENIGN PHEOCHROMOCYTOMA, BILATERAL LESIONS): active; positive

Compound: CO[C@@]12[C@H](COC(N)=O)C3=C(C(=O)C(C)=C(N)C3=O)N1C[C@@H]1N[C@@H]12
- carcinogen call (Species: RAT, Route: INTRAPERITONEAL, Tumor Site: Type of Lesion: PERITONEAL CAVITY): active; positive
- carcinogen call (Species: RAT, Route: INTRAVENOUS, Tumor Site: Type of Lesion: PERITONEAL CAVITY, MAMMARY GLAND, INTESTINES, Tumor Site: Type of Lesion: PERITONEAL CAVITY, MAMMARY GLAND, INTESTINES): active; positive

Compound: c1cc2ccc3ccc4ccc5cccc6c(c1)c2c3c4c56
- carcinogen call (Species: RAT, Strain/Sex: OSBORNE-MENDEL/FEMALE, Route: LUNG IMPLANT, Dose: 0, 0.16, 0.83, 4.15 MG IN BEESWAX/TRIOCTANOIN (STUDY DURATION: LIFETIME), Dose: 0, 0.16, 0.83, 4.15 MG IN BEESWAX/TRIOCTANOIN (STUDY DURATION: LIFETIME)): inactive; negative

Compound: NS(=O)(=O)c1cc2c(cc1Cl)NCNS2(=O)=O
- carcinogen call (Species: MOUSE, Strain/Sex: B6C3F1/FEMALE, Route: ORAL, Dose: 0, 2500, 5000 PPM IN FEED FOR 103-104 WK (STUDY DURATION: 106 WK), Dose: 0, 2500, 5000 PPM IN FEED FOR 103-104 WK (STUDY DURATION: 106 WK)): inactive; negative
- carcinogen call (Species: MOUSE, Strain/Sex: B6C3F1/MALE, Route: ORAL, Dose: 0, 2500, 5000 PPM IN FEED FOR 103-104 WK (STUDY DURATION: 106 WK), Dose: 0, 2500, 5000 PPM IN FEED FOR 103-104 WK (STUDY DURATION: 106 WK), Tumor Site: Type of Lesion: LIVER: HEPATOCELLULAR ADENOMA OR CARCINOMA): equivocal
- carcinogen call (Species: RAT, Strain/Sex: F344/FEMALE, Route: ORAL, Dose: 0, 0.1% IN DIET FOR 104 WK (STUDY DURATION: 130 WK)): inactive; negative
- carcinogen call (Species: RAT, Strain/Sex: F344/FEMALE, Route: ORAL, Dose: 0, 250, 500, 2000 PPM IN FEED FOR 105-106 WK (STUDY DURATION: 106 WK), Dose: 0, 250, 500, 2000 PPM IN FEED FOR 105-106 WK (STUDY DURATION: 106 WK)): inactive; negative
- carcinogen call (Species: RAT, Strain/Sex: F344/MALE, Route: ORAL, Dose: 0, 0.1% IN DIET FOR 104 WK (STUDY DURATION: 130 WK)): inactive; negative
- carcinogen call (Species: RAT, Strain/Sex: F344/MALE, Route: ORAL, Dose: 0, 250, 500, 2000 PPM IN FEED FOR 105-106 WK (STUDY DURATION: 106 WK), Dose: 0, 250, 500, 2000 PPM IN FEED FOR 105-106 WK (STUDY DURATION: 106 WK)): inactive; negative

Compound: CC(O)CCl (stereo not drawn)
- carcinogen call (Species: MOUSE, Strain/Sex: B6C3F1/FEMALE, Route: ORAL, Dose: 0, 250, 500, 1000 PPM IN DRINKING WATER FOR DURATION OF STUDY (STUDY DURATION: 2 YR), Dose: 0, 250, 500, 1000 PPM IN DRINKING WATER FOR DURATION OF STUDY (STUDY DURATION: 2 YR)): inactive; negative
- carcinogen call (Species: MOUSE, Strain/Sex: B6C3F1/MALE, Route: ORAL, Dose: 0, 250, 500, 1000 PPM IN DRINKING WATER FOR DURATION OF STUDY (STUDY DURATION: 2 YR), Dose: 0, 250, 500, 1000 PPM IN DRINKING WATER FOR DURATION OF STUDY (STUDY DURATION: 2 YR)): inactive; negative
- carcinogen call (Species: RAT, Strain/Sex: F344/FEMALE, Route: ORAL, Dose: 10, 150, 325, 650 PPM IN DRINKING WATER FOR DURATION OF STUDY (STUDY DURATION: 2 YR), Dose: 10, 150, 325, 650 PPM IN DRINKING WATER FOR DURATION OF STUDY (STUDY DURATION: 2 YR)): inactive; negative
- carcinogen call (Species: RAT, Strain/Sex: F344/MALE, Route: ORAL, Dose: 0, 150, 325, 650 PPM IN DRINKING WATER FOR DURATION OF STUDY (STUDY DURATION: 2 YR), Dose: 0, 150, 325, 650 PPM IN DRINKING WATER FOR DURATION OF STUDY (STUDY DURATION: 2 YR)): inactive; negative
